As usually defined, the HC50 is the concentration that lyses half of the red blood cells.

The values below come from publication PMC8608343 (PLoS ONE, 2021).

Series [1] has as its system Leishmania donovani promastigotes. The series can be described thus: Growth kinetics and cytocidal/cytostatic (growth reversibility) assay. The following applies: 1 μg/ml, 120 hrs treatment, then 96 hrs in fresh media. It counts as cell-based. The method, then:
The compounds (at 1 μg/ml) were tested for their effects on the growth kinetic pattern against the promastigotes of L. donovani. The parasite cells (2 x 10^5 cells/ml) were incubated at 25° C in the presence of the test compounds in M199 supplemented with 10% FBS. Amphotericin B treated parasites (0–50 μg/ml) were used as the positive control while the untreated promastigotes in medium alone served as the negative control. Viable cells were counted every 24 hrs for a total of 120 hrs as indicated in previous studies.
The cytocidal/cytostatic effect of the test compounds were assessed by analyzing the treated and untreated parasites after 120 hrs of incubation. Cells were washed twice with fresh M199, resuspended in complete M199 media and incubated further for 96 hrs. The viable cells were then counted microscopically.

For series [2], the system named is Leishmania donovani amastigotes in RAW macrophage cells. The series is described as follows: Antileishmanial activity against macrophage-amastigotes (MTT assay). Particulars: for Therapeutic Index (TC50/IC50) amastigotes: TC50 RAW / IC50 amastigote; for IC50 (μg/ml) ±SD amastigote / IC50: amastigotes in RAW macrophages, MTT; for IC50: Leishmania donovani, Macrophage, read-out: IC50 (μg/ml) ±SD amastigote. It counts as cell-based. The method, then: The RAW macrophage cells were infected with promastigotes at a density of 1:10 ratio, respectively for 12 hrs and the non-phagocytosed promastigotes and media removed by aspiration. The RAW macrophages cells containing the internalized amastigote cells were treated with the compounds to test for their growth inhibitory potentials as previously described. The 3-(4,5-Dimethylthiazol-2-yl)-2,5-diphenyltetrazolium bromide (MTT) assay was also used to determine the parasite viability. […] was measured with a Varioskan Lux Elisa plate reader at a wavelength of 570 nm.
Background: Formazan colour is commonly taken as a measure of viable cells.

The test system of series [3] is Leishmania donovani promastigotes. The series can be described thus: ROS generation in treated promastigotes (H2DCFDA). It counts as cell-based. Particulars: 100, 50 or 25 μM, 72 hrs. As to the method: (§1) The degree of reactive oxygen species (ROS) production in treated promastigote and amastigote cells of L. donovani were assessed using the H2DCFDA (2’,7’-dichlorodihydrofluorescein diacetate) rich fluorescent dye (MAK145 Sigma-Aldrich) ROS detection kit. […] Amoxicillin was used as a positive control for pro-oxidative generation while Vitamin C was used as a positive control for anti-oxidative potential. The treated and untreated cells were then suspended in PBS, washed, and resuspended in PBS, then incubated with the ROS detection master mix for 1 hr as instructed by the protocol. The cells were analyzed for intracellular ROS generation by measuring the fluorescence intensity which is proportional to the ROS production level using the Varioskan Lux Elisa microplate reader (Thermo Fischer Scientific, USA) at a wavelength of 605 nm.

Series [4] concerns RAW 264.7 murine macrophage cell line. The series is described as follows: Cytotoxicity against mammalian RAW macrophage cell line (MTT assay). The following applies: 48 hrs, 50% cytotoxic concentration. The source says: Here, amphotericin B was used as a positive control and the negative control was untreated RAW cell line.
The subject of series [5] is Leishmania donovani promastigotes. The series can be described thus: Antileishmanial activity against promastigotes (MTT assay). It counts as cell-based. Particulars: for IC50 (μg/ml) ±SD promastigote / IC50: 96 hrs at 25° C, MTT, mean of three experiments; for Therapeutic Index (TC50/IC50) promastigotes: TC50 RAW / IC50 promastigote; for IC50: Leishmania donovani, read-out: IC50 (μg/ml) ±SD promastigote. The source says:
Amphotericin B was used as a positive control. The 3-(4,5-Dimethylthiazol-2-yl)-2,5-diphenyltetrazolium bromide (MTT) assay was used to determine the parasite viability as previously described.

The test system of series [6] is Leishmania donovani amastigotes. The series is described as follows: ROS generation in treated amastigotes (H2DCFDA). The following applies: 100, 50 or 25 μM, 24 hrs. It is filed as cell-based. As to the method: as §1
A further series relates to O+ human red blood cells. The series is described as follows: Haemolytic potential. The following applies: 2% haematocrit, up to 100 μg/ml. The method, then: The compounds were tested against the O^+ human red blood cells (obtained from the Malaria laboratory of WACCBIP) at a density of 2% haematocrit for their ability to lyse erythrocytes upon incubation. Here, a concentration of up to 100 μg/ml of compounds was used, and the 50% haemolytic concentration (HC50) of the compounds were determined by analysis of dose-response curves as described.

Series [7] relates to Leishmania donovani promastigotes. The series is described as follows: Cell cycle analysis by flow cytometry. It is filed as cell-based. The following applies: 2x IC50, 24 hrs, versus untreated. The method, then:
The analysis was done using the protocol as designed in the Guava cell cycle reagent manual (catalog No. 4500–0220). […] Both treated and untreated Leishmania cells were incubated for 24 hrs, samples read using a flow cytometer (BD LSR Fortessa X-20 analyzer BD Biosciences), and the respective cell counts analyzed in the G0/G1, S and G2/M Phases. Data generated was further analyzed using the FlowJo V10 software.
Background: In flow cytometry, cells or beads pass a laser one at a time.

Series [8] shares this test system. The series is described as follows: Morphological and mitochondrion effects by fluorescence microscopy (DAPI, MitoTracker). It counts as cell-based. As to the method: Their mitochondrial integrity were analyzed using a slightly modified DAPI and Mitotracker dye protocol as described by Amisigo and colleagues.
For series [9] the test system is unchanged. The series can be described thus: Externalization of phosphatidylserine, Annexin V-FITC / PI flow cytometry. It is filed as cell-based. The following applies: 2x IC50, 24 hrs; for effect on externalization of phosphatidylserine (apoptotic potential): p-value = 0.9926. The method, then:
A double staining of treated/ untreated promastigotes of Leishmania donovani (2 x 10^5 cells/ml) with Annexin V-FITC and Propidium Iodide (PI) was done to determine the apoptotic and necrotic effects of the some of the established cytocidal compounds amongst the eighteen MMV compounds studied. Treatment was set at 2x IC50 concentrations of the respective test compounds against a negative control of untreated promastigote cells in a 24 hrs incubation period. The cells were then prepared using the Annexin V-FITC apoptosis detection kit following the Sigma protocol (Catalog Number: APOAF). Further treatment and analysis of cells was done as shown previously.

Series [10] has as its system Leishmania donovani. On the set-up: method as in PMID 33268145. The following applies: dosed at 50 mg/kg, mouse model of visceral leishmaniasis; cited from earlier work.
Series [11] relates to Leishmania donovani. The following applies: cited from earlier work.

≈ marks a conversion by molar mass, not a printed value. Some results are limits rather than exact numbers.

For the compound `Cc1ncc(-c2ccnc(Nc3ccc(S(C)(=O)=O)cc3)n2)n1C(C)C` [Compound B03B], the “cytocidal/cytostatic effect upon drug withdrawal” value in [1] is given as “cytocidal effect”. Also, in series [2], the “Therapeutic Index (TC50/IC50) amastigotes” value turned out to be 0.63 and the “IC50 (μg/ml) ±SD amastigote” value was 0.40 ± 0.050 µg/mL (≈ 1.08 µM). Also, in series [3], the “ROS generation effect in promastigotes” value is recorded as “pro-oxidative action”. In addition, in [4], the “TC50 (μg/ml) ±SD RAW” value was found to be 0.25 ± 0.040 µg/mL (≈ 0.673 µM). In series [5], the “IC50 (μg/ml) ±SD promastigote” value was 0.20 ± 0.040 µg/mL (≈ 0.538 µM) and the “Therapeutic Index (TC50/IC50) promastigotes” value was 1.25. Further, the “ROS generation effect in amastigotes” value in series [6] is “anti-oxidative effect”. In addition, in the series with O+ human red blood cells, the “HC50” value was more than 100 µg/mL.
Turning to `Cc1noc(C)c1COc1cccc(C(=O)N=c2[nH]cccc2C)c1` [Compound D05A], the “increase in parasites at the S phase” value in [7] is 1.5 fold. For the same compound, in [1], the “cytocidal/cytostatic effect upon drug withdrawal” value is on record as “cytocidal effect”. Also, in series [2], the IC50 is 3.8 ± 0.03 µg/mL (≈ 11.3 µM) and the “Therapeutic Index (TC50/IC50) amastigotes” value was 26.32. The “ROS generation effect in promastigotes” value in [3] is given as “anti-oxidative effect”. In series [4], the “TC50 (μg/ml) ±SD RAW” value was more than 100 µg/mL. In series [5], the IC50 stood at 0.2 ± 0.02 µg/mL (≈ 0.593 µM) and the “Therapeutic Index (TC50/IC50) promastigotes” value was found to be 500. The “morphological / mitochondrial changes after 24 hrs” value in series [8] (2x IC50, 24 hrs) is listed as “did not show any obvious abnormalities”. In series [8] (2x IC50, 72 hrs), the “morphological / mitochondrial changes after 72 hrs” value is “most of the fields had total parasite clearance” and the “nuclear/ kinetoplast DNA degenerated” value is given as 90%. Moreover, the “HC50” value with O+ human red blood cells was more than 100 µg/mL. Also, in series [9], the “more necrotic cells compared to negative control” value is “about 6.5%” and the “effect on externalization of phosphatidylserine (apoptotic potential)” value was “none of the compounds showed any significant effects”.
In the case of `O=[N+]([O-])c1cn2c(n1)O[C@@H](COc1ccc(-c3ccc(F)cc3)nc1)CC2` [DNDI-0690], the parasite burden reduction with Leishmania donovani [10] was 96%.
For `C1CCCC1.CN(CCn1cc(C2CCCC2)nn1)c1ccnc2cc(Cl)ccc12.I.[Fe]` [CQFC1], the “efficacy among water-soluble ferrocenylquinoline derivatives” value with Leishmania donovani [11] is given as “most efficacious of the molecules”.
Turning to `CC1COC(Cn2cncn2)(c2ccc(Oc3ccc(Cl)cc3)cc2Cl)O1` (stereo not shown) [Compound C06A, Difenoconazole, reference compound], the “increase in parasites at the S phase” value in series [7] is listed as 1.5 fold. Besides, the “cytocidal/cytostatic effect upon drug withdrawal” value in [1] is reported as “cytocidal effect”. For the same compound, in series [2], the IC50 came to 4.6 ± 0.004 µg/mL (≈ 11.3 µM) and the “Therapeutic Index (TC50/IC50) amastigotes” value turned out to be 21.74. Also, in series [4], the “TC50 (μg/ml) ±SD RAW” value is more than 100 µg/mL. In series [5], the IC50 amounted to 0.21 ± 0.008 µg/mL (≈ 0.517 µM) and the “Therapeutic Index (TC50/IC50) promastigotes” value came out at 476.19. In series [8] (2x IC50, 24 hrs), the “cells with lost kinetoplast DNA and enlarged nuclear DNA” value was determined as 60%. In addition, the “morphological / mitochondrial changes after 72 hrs” value in [8] (2x IC50, 72 hrs) is recorded as “parasite clearance in most fields”. The “HC50” value with O+ human red blood cells was more than 100 µg/mL. For the same compound, in [9], the “more necrotic cells compared to negative control” value was approximately 17% and the “effect on externalization of phosphatidylserine (apoptotic potential)” value is recorded as “none of the compounds showed any significant effects”.
Regarding `O=C(Nc1ccccc1-c1nc2c(C(=O)O)cccc2o1)c1ccccc1` [Compound C06D], the “cytocidal/cytostatic effect upon drug withdrawal” value in series [1] is listed as “cytocidal effect”. Moreover, in [2], the “Therapeutic Index (TC50/IC50) amastigotes” value came to 0.13 and the “IC50 (μg/ml) ±SD amastigote” value was 3.0 ± 0.001 µg/mL (≈ 8.37 µM). Moreover, the “ROS generation effect in promastigotes” value in series [3] is on record as “anti-oxidative effect”. Also, the “TC50 (μg/ml) ±SD RAW” value in series [4] worked out at 0.39 ± 0.010 µg/mL (≈ 1.09 µM). In series [5], the “IC50 (μg/ml) ±SD promastigote” value is more than 6.25 µg/mL and the “Therapeutic Index (TC50/IC50) promastigotes” value worked out at 0.06. Also, the “ROS generation effect in amastigotes” value in series [6] is listed as “pro-oxidative effect”. The “HC50” value in the series with O+ human red blood cells is more than 100 µg/mL.
